The values below are quoted from earlier work in patent US20120302534A1, “DERIVATIVES OF BETULIN” (priority 2010, published 2012).

The series has as its system HIV.

In the case of `C=C(C)[C@@H]1CC[C@]2(C(=O)O)CC[C@]3(C)[C@H](CC[C@@H]4[C@@]5(C)CC[C@H](OC(=O)CC(C)(C)C(=O)O)C(C)(C)[C@@H]5CC[C@]43C)[C@@H]12` [Bevirimat], the “reduced HIV viral load by a mean of” value (patients who achieved trough levels of >=20 μg/mL and without key baseline Gag polymorphisms at Q369, V370 or T371) is reported as 1.3 log10/mL. The “viral load reduction versus patients without Gag polymorphisms” value (users with Gag polymorphisms at Q369, V370 or T371) is on record as “significantly lower load reductions”.
